Earlier results as cited in patent publication US20250367137A1, “Phloroglucinol Formulations And Methods Of Use” (priority 2022, published 2025).

System: irritable bowel syndrome (IBS) sufferers
Conditions: placebo-controlled trials

Q: For `Oc1cc(O)cc(O)c1` [phloroglucinol], which “improvement in pain and stool frequency” value is on record?
A: Its value is “statistically significant improvement”.
